# Test results: US20250122218A1, “MODULATORS OF CYSTIC FIBROSIS TRANSMEMBRANE CONDUCTANCE REGULATOR” (Vertex Pharmaceuticals Incorporated, priority 2022, published 2025)
# Molecular target: T1, CFTR in F508del/MF-HBE cells (Homo sapiens, UniProt P13569, DEL508-508)
# T1 construct: human bronchial epithelial (HBE) cells derived from CF subjects heterozygous for F508del and a minimal function CFTR mutation; endogenous in cells; host or cells: primary human bronchial epithelial cells from CF subjects (F508del/MF-HBE)
# Test: Ussing chamber assay of CFTR-mediated short-circuit currents (identification of potentiator compounds)
# Format: cell-based
# Details: potentiator incubated 18-24 hours at 37° C. in combination with 10 μM corrector, in the presence of 20% human serum, CFTR-mediated ISC
# In short: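 F508del/MF-HBE cultures were preincubated 18-24 h at 37° C with potentiator plus 10 μM of a fixed corrector compound in 20% human serum; compounds were kept present during measurement. ISC was recorded under voltage clamp (0 mV, 37° C, amiloride apical) and taken as the 20 μM forskolin peak minus the current after inhibitor cocktail.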
# T1 sequence (P13569 with tags, fused parts or gaps DEL508-508): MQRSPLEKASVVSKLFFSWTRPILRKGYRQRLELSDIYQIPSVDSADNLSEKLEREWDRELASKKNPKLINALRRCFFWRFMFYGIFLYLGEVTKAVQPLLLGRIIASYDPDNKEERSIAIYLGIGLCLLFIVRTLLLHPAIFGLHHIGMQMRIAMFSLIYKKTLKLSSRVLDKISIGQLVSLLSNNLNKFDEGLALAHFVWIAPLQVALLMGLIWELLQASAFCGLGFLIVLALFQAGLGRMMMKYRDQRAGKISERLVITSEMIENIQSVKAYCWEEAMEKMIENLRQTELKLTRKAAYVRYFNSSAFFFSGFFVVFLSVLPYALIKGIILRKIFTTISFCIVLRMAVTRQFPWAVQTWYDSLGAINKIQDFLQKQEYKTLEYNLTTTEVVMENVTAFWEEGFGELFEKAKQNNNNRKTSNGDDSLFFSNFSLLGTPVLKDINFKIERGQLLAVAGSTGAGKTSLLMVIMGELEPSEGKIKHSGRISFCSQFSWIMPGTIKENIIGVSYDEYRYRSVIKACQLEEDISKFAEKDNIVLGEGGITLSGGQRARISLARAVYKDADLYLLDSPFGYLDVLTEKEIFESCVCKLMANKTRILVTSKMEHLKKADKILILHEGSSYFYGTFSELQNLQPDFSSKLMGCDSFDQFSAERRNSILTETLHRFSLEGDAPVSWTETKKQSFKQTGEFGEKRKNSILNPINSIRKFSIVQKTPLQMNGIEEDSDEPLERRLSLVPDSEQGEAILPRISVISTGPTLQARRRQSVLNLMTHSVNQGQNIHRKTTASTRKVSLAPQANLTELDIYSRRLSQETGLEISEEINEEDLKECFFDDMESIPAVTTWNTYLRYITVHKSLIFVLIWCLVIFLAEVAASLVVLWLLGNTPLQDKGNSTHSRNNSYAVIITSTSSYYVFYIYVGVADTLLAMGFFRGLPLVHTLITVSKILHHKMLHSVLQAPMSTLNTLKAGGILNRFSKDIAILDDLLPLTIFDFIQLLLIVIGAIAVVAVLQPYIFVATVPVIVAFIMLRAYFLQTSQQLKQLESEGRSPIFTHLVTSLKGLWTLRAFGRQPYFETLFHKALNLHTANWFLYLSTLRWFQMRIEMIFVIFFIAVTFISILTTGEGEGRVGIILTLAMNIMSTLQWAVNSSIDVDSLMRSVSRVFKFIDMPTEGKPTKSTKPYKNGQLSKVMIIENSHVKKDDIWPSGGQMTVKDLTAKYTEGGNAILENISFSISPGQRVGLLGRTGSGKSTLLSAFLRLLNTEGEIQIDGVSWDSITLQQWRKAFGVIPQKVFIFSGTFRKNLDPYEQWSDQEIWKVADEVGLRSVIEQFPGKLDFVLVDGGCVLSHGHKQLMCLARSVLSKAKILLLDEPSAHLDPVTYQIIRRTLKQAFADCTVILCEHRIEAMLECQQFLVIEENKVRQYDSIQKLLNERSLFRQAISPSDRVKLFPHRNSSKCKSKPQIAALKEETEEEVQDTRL
row,EC50 [µM],Compound
1,< 0.5,"Nc1cc(C(F)(F)F)c2nc1-c1nnc(o1)[C@@](O)(C(F)(F)F)CCCCCN(Cc1ccc(C34CC(C3)C4)cc1)C2=O [Compound 195, (6R)-17-amino-12-[[4-(1-bicyclo[1.1.1]pentanyl)phenyl]methyl]-6-hydroxy-6,15-bis(trifluoromethyl)-19-oxa-3,4,12,18-tetrazatricyclo[12.3.1.12,5]nonadeca-1(18),2,4,14,16-pentaen-13-one]"
2,< 0.5,"Nc1cc(C(F)(F)F)c2nc1-c1nnc(o1)[C@@](O)(C(F)(F)F)CCCCCN([C@H]1CC[C@@H](C(F)(F)F)CC1)C2=O [Compound 208, (6R)-17-amino-6-hydroxy-12-[(1s,4s)-4-(trifluoromethyl)cyclohexyl]-6,15-bis(trifluoromethyl)-19-oxa-3,4,12,18-tetraazatricyclo [12.3.1.12,5] nonadeca-1(18),2,4,14,16-pentaen-13-one]"
3,< 0.5,"Nc1cc(C(F)(F)F)c2nc1-c1nnc(o1)[C@@](O)(C(F)(F)F)CCCCCN([C@H]1CC[C@H](C(F)(F)F)CC1)C2=O [Compound 209, (6R)-17-amino-6-hydroxy-12-[(1r,4r)-4-(trifluoromethyl)cyclohexyl]-6,15-bis(trifluoromethyl)-19-oxa-3,4,12,18-tetraazatricyclo [12.3.1.12,5] nonadeca-1(18),2,4,14,16-pentaen-13-one]"
4,< 0.5,"Nc1cc(C(F)(F)F)c2nc1-c1nnc(o1)[C@@](O)(C(F)(F)F)CCCCCN(C13CCC(CC1)CC3)C2=O [Compound 210, (6R)-17-amino-12-(1-bicyclo[2.2.2]octanyl)-6-hydroxy-6,15-bis(trifluoromethyl)-19-oxa-3,4,12,18-tetrazatricyclo [12.3.1.12,5] nonadeca-1(18),2,4,14,16-pentaen-13-one]"
5,< 0.5,"COC12CCC(N3CCCCC[C@](O)(C(F)(F)F)c4nnc(o4)-c4nc(c(C(F)(F)F)cc4N)C3=O)(CC1)C2 [Compound 211, (6R)-17-amino-6-hydroxy-12-(4-methoxynorbornan-1-yl)-6,15-bis(trifluoromethyl)-19-oxa-3,4,12,18-tetrazatricyclo [12.3.1.12,5] nonadeca-1(18),2,4,14,16-pentaen-13-one]"
6,< 0.5,"Cc1cccc(CN2CCCCC[C@](O)(C(F)(F)F)C3=NN=C(O3)c3nc(c(C(F)(F)F)cc3N)C2=O)c1 [Compound 212, (6R)-17-amino-6-hydroxy-12-(m-tolylmethyl)-6,15-bis(trifluoromethyl)-19-oxa-3,4,12,18-tetrazatricyclo [12.3.1.12,5] nonadeca-1(18),2,4,14,16-pentaen-13-one]"
7,< 0.5,"CC(C)(C)CCN1CCCCC[C@](O)(C(F)(F)F)C2=NN=C(O2)c2nc(c(C(F)(F)F)cc2N)C1=O [Compound 213, (6R)-17-amino-12-(3,3-dimethylbutyl)-6-hydroxy-6,15-bis(trifluoromethyl)-19-oxa-3,4,12,18-tetrazatricyclo [12.3.1.12,5] nonadeca-1(18),2,4,14,16-pentaen-13-one]"
8,< 0.5,"Nc1cc(C(F)(F)F)c2nc1-c1nnc(o1)[C@@](O)(C(F)(F)F)CCCCCN(Cc1ccc(C3(C(F)(F)F)CC3)cn1)C2=O [Compound 214, (6R)-17-amino-6-hydroxy-6,15-bis(trifluoromethyl)-12-[[5-[1-(trifluoromethyl)cyclopropyl]-2-pyridyl]methyl]-19-oxa-3,4,12,18-tetrazatricyclo [12.3.1.12,5] nonadeca-1(18),2,4,14,16-pentaen-13-one]"
9,< 0.5,"Nc1cc(C(F)(F)F)c2nc1-c1nnc(o1)[C@@](O)(C(F)(F)F)CCCCCN(Cc1cccc(Br)c1)C2=O [Compound 216, (6R)-17-amino-12-[(3-bromophenyl)methyl]-6-hydroxy-6,15-bis(trifluoromethyl)-19-oxa-3,4,12,18-tetrazatricyclo [12.3.1.12,5] nonadeca-1(18),2,4,14,16-pentaen-13-one]"
10,< 0.5,"Nc1cc(C(F)(F)F)c2nc1-c1nnc(o1)[C@@](O)(C(F)(F)F)CCCCCN(Cc1ccc(C3CC3)cc1)C2=O [Compound 217, (6R)-17-amino-12-[(4-cyclopropylphenyl)methyl]-6-hydroxy-6,15-bis(trifluoromethyl)-19-oxa-3,4,12,18-tetrazatricyclo [12.3.1.12,5] nonadeca-1(18),2,4,14,16-pentaen-13-one]"
11,< 0.5,"CC(C)(C1CC1)N1CCCCC[C@](O)(C(F)(F)F)C2=NN=C(O2)c2nc(c(C(F)(F)F)cc2N)C1=O [Compound 218, (6R)-17-amino-12-(1-cyclopropyl-1-methyl-ethyl)-6-hydroxy-6,15-bis(trifluoromethyl)-19-oxa-3,4,12,18-tetrazatricyclo [12.3.1.12,5] nonadeca-1(18),2,4,14,16-pentaen-13-one]"
12,< 0.5,"CC1(N2CCCCC[C@](O)(C(F)(F)F)C3=NN=C(O3)c3nc(c(C(F)(F)F)cc3N)C2=O)CCCCC1 [Compound 219, (6R)-17-amino-6-hydroxy-12-(1-methylcyclohexyl)-6,15-bis(trifluoromethyl)-19-oxa-3,4,12,18-tetrazatricyclo [12.3.1.12,5] nonadeca-1(18),2,4,14,16-pentaen-13-one]"
13,< 0.5,"Nc1cc(C(F)(F)F)c2nc1-c1nnc(o1)[C@@](O)(C(F)(F)F)CCCCCN(Cc1cccc(C3(C(F)(F)F)CC3)c1)C2=O [Compound 220, (6R)-17-amino-6-hydroxy-6,15-bis(trifluoromethyl)-12-[[3-[1-(trifluoromethyl)cyclopropyl]phenyl]methyl]-19-oxa-3,4,12,18-tetrazatricyclo [12.3.1.12,5] nonadeca-1(18),2,4,14,16-pentaen-13-one]"
14,< 0.5,"CC(C)(C)c1cccc(CN2CCCCC[C@](O)(C(F)(F)F)C3=NN=C(O3)c3nc(c(C(F)(F)F)cc3N)C2=O)c1 [Compound 221, (6R)-17-amino-12-[(3-tert-butylphenyl)methyl]-6-hydroxy-6,15-bis(trifluoromethyl)-19-oxa-3,4,12,18-tetrazatricyclo [12.3.1.12,5] nonadeca-1(18),2,4,14,16-pentaen-13-one]"
15,< 0.5,"CC(C)(c1cccc(CN2CCCCC[C@](O)(C(F)(F)F)C3=NN=C(O3)c3nc(c(C(F)(F)F)cc3N)C2=O)c1)C(F)(F)F [Compound 222, (6R)-17-amino-6-hydroxy-12-[[3-(2,2,2-trifluoro-1,1-dimethyl-ethyl)phenyl]methyl]-6,15-bis(trifluoromethyl)-19-oxa-3,4,12,18-tetrazatricyclo [12.3.1.12,5] nonadeca-1(18),2,4,14,16-pentaen-13-one]"
16,< 0.5,"Nc1cc(C(F)(F)F)c2nc1-c1nnc(o1)[C@@](O)(C(F)(F)F)CCCCCN(Cc1cccc(OCC3(C(F)(F)F)CC3)c1)C2=O [Compound 223, (6R)-17-amino-6-hydroxy-6,15-bis(trifluoromethyl)-12-[[3-[[1-(trifluoromethyl)cyclopropyl]methoxy]phenyl]methyl]-19-oxa-3,4,12,18-tetrazatricyclo [12.3.1.12,5] nonadeca-1(18),2,4,14,16-pentaen-13-one]"
17,< 0.5,"Nc1cc(C(F)(F)F)c2nc1-c1nnc(o1)[C@@](O)(C(F)(F)F)CCCCCN(Cc1cccc(C3CC(F)(F)C3)c1)C2=O [Compound 224, (6R)-17-amino-12-[[3-(3,3-difluorocyclobutyl)phenyl]methyl]-6-hydroxy-6,15-bis(trifluoromethyl)-19-oxa-3,4,12,18-tetrazatricyclo [12.3.1.12,5] nonadeca-1(18),2,4,14,16-pentaen-13-one]"
18,< 0.5,"Cc1cc(C)cc(CN2CCCCC[C@](O)(C(F)(F)F)C3=NN=C(O3)c3nc(c(C(F)(F)F)cc3N)C2=O)c1 [Compound 225, (6R)-17-amino-12-[(3,5-dimethylphenyl)methyl]-6-hydroxy-6,15-bis(trifluoromethyl)-19-oxa-3,4,12,18-tetrazatricyclo [12.3.1.12,5] nonadeca-1(18),2,4,14,16-pentaen-13-one]"
19,< 0.5,"CC(C)(C)C1(N2CCCCC[C@](O)(C(F)(F)F)C3=NN=C(O3)c3nc(c(C(F)(F)F)cc3N)C2=O)CC1 [Compound 226, (6R)-17-amino-12-(1-tert-butylcyclopropyl)-6-hydroxy-6,15-bis(trifluoromethyl)-19-oxa-3,4,12,18-tetrazatricyclo [12.3.1.12,5] nonadeca-1(18),2,4,14,16-pentaen-13-one]"
20,< 0.5,"Nc1cc(C(F)(F)F)c2nc1-c1nnc(o1)[C@@](O)(C(F)(F)F)CCCCCN(Cc1cccc(C3CCC3)c1)C2=O [Compound 229, (6R)-17-amino-12-[(3-cyclobutylphenyl)methyl]-6-hydroxy-6,15-bis(trifluoromethyl)-19-oxa-3,4,12,18-tetrazatricyclo [12.3.1.12,5] nonadeca-1(18),2,4,14,16-pentaen-13-one]"
21,< 0.5,"COc1cc(CN2CCCCC[C@](O)(C(F)(F)F)C3=NN=C(O3)c3nc(c(C(F)(F)F)cc3N)C2=O)ccc1C(F)(F)F [Compound 230, (6R)-17-amino-6-hydroxy-12-[[3-methoxy-4-(trifluoromethyl)phenyl]methyl]-6,15-bis(trifluoromethyl)-19-oxa-3,4,12,18-tetrazatricyclo [12.3.1.12,5] nonadeca-1(18),2,4,14,16-pentaen-13-one]"
22,< 0.5,"Nc1cc(C(F)(F)F)c2nc1-c1nnc(o1)[C@@](O)(C(F)(F)F)CCCCCN(Cc1cccc(C3CC3)c1)C2=O [Compound 231, (6R)-17-amino-12-[(3-cyclopropylphenyl)methyl]-6-hydroxy-6,15-bis(trifluoromethyl)-19-oxa-3,4,12,18-tetrazatricyclo [12.3.1.12,5] nonadeca-1(18),2,4,14,16-pentaen-13-one]"
23,< 0.5,Nc1cc(C(F)(F)F)c2nc1-c1nnc(o1)[C@@](O)(C(F)(F)F)CCCCCN(Cc1cccc(C34CC(C3)C4)c1)C2=O [Compound 240]
